Test results from article PMC2120548 (The Journal of Cell Biology, 1995).
Blank lines part the entries; values can stand above or below the compound they belong to. Ends that are not written are not given here.

Tests used:
[1] = Inhibition of RGD-phage binding to immobilized beta 3
[2] = tested on: MG-63 osteosarcoma cells, vitronectin; experiment: Cell attachment assay on vitronectin; type: cell-based; conditions: MG-63 cells, 30 min, crystal violet OD600, mean of triplicate wells
[3] = tested on: MG-63 osteosarcoma cells, fibronectin; experiment: Cell attachment assay on fibronectin; type: cell-based; conditions: MG-63 cells, 30 min, crystal violet OD600, mean of triplicate wells
[4] = tested on: MG-63 osteosarcoma cells, type IV collagen; experiment: Cell attachment assay on type IV collagen; type: cell-based; conditions: MG-63 cells, 30 min, crystal violet OD600, mean of triplicate wells
RGD-phage = type: binding; conditions: peptide coated at 20 μg/ml; mean of triplicate wells
[5] = tested on: beta 3 subunit of purified alpha IIb beta 3; experiment: Immunoblot of purified alpha IIb beta 3; type: binding
[6] = Inhibition of RGD-phage attachment to immobilized peptides; type: binding; conditions: soluble peptide 1 mM; mean of triplicate wells, Fig. 3 c
[7] = Inhibition of WDDGWL-phage attachment to immobilized peptides; type: binding; conditions: soluble peptide 1 mM; mean of triplicate wells, Fig. 3 b
[8] = tested on: III8-11 fibronectin fragment / WDDGWL-phage; experiment: Inhibition of WDDGWL-phage binding to fibronectin fragment by peptides; conditions: soluble competitor, microtiter assay, Fig. 2 b
[9] = tested on: beta 1 and beta 3 integrin subunits in MG-63 total cell extracts; experiment: Immunoblot of MG-63 cell extracts; type: binding; conditions: peptide 100 μM, Fig. 7 b lanes C and D
fibronectin = experiment: Affinity chromatography on *[…]*-Sepharose; type: binding, Human
[10] = WDDGWL-phage attachment to immobilized peptide; type: binding; conditions: peptide coated at 20 μg/ml; mean of triplicate wells
[11] = tested on: fibronectin type III10 (RGD-containing) fragments; experiment: Panning of phage display peptide libraries on fibronectin fragments; type: binding; conditions: Table I
[12] = Fibronectin on control peptide column; type: binding; conditions: not shown
[13] = tested on: fibronectin and fibronectin fragments containing the RGD sequence (III10); experiment: Phage attachment assay on fibronectin and RGD-containing fibronectin fragments; type: binding, Human
[14] = tested on: control proteins (BSA and GST); experiment: Phage attachment assay on control proteins; type: binding; conditions: microtiter wells, OD600, mean of triplicates
[15] = tested on: fragment encompassing the alternatively spliced cell attachment domain of fibronectin; experiment: Phage attachment assay on alternatively spliced fibronectin fragment; type: binding; conditions: not shown
[16] = tested on: fibronectin fragment III8,9 (RGD-); experiment: Phage attachment assay on fibronectin fragment III8,9; type: binding; conditions: microtiter wells, OD600, mean of triplicates
RGD-mimic OPG2 antibody = conditions: aspartic acid residues of DDLW mutated to alanines; ref Bajt et al. (3); cited from earlier work
fibrinogen = conditions: aspartic acid residues of DDLW mutated to alanines; cited from earlier work

effect of EDTA on RGD-phage binding ([1]; peptides coated in the presence of cations, EDTA 10 mM): did not block phage binding
Compound: O=C(O)CN(CCN(CC(=O)O)CC(=O)O)CC(=O)O [EDTA, reference compound]

Compound: *CVRLNSLAC* (disulfide) [reference compound]
inhibition of cell attachment [2]: no effect on any of the substrates | inhibition of cell attachment [3]: no effect on any of the substrates | inhibition of cell attachment [4]: no effect on any of the substrates

binding of RGD-phage to immobilized peptide (RGD-phage): can bind to the *CWDDGWLC*-containing | inhibition of RGD-phage binding to immobilized peptide [6]: inhibited by both peptides | inhibition of WDDGWL-phage binding to immobilized peptide [7]: blocked the WDDGWL-phage binding | inhibition of WDDGWL-phage binding [8]: in a dose-dependent manner | inhibition of RGD-phage binding ([1]; soluble peptide, Fig. 6 b): blocked
Compound: *CWDDGWLC* (disulfide)
inhibition of cell attachment [2]: inhibited cell adhesion | inhibition of cell attachment [3]: inhibited cell adhesion | effect of peptide on reactivity of positive control antibodies ([5]; Fig. 7 a or b, also MG-63 extracts): no ef- fect on the reactivity of the positive control antibodies | reactivity of the anti-*CWDDGWLC* serum after preincubation with peptide ([5]; peptide 100 μM, Fig. 7 a lanes C and D): abrogated | reactivity of the anti-WDDGWL serum after preincubation with peptide [9]: abrogated | binding of fibronectin to peptide-Sepharose (fibronectin; fibronectin 2 mg, TBS, SDS-PAGE): fibronectin bound to *CWDDGWLC*-Sepharose | inhibition of cell attachment [4]: not on collagen

binding of RGD-phage to immobilized peptide (RGD-phage): slight, but consistent, binding | inhibition of RGD-phage binding to immobilized peptide [6]: inhibited by both peptides | inhibition of WDDGWL-phage binding to immobilized peptide [7]: blocked the WDDGWL-phage binding | inhibition of WDDGWL-phage binding [8]: in a dose-dependent manner
Compound: A*CRGDGWMC*G (disulfide) [reference compound]
binding of WDDGWL-phage to immobilized peptide [10]: WDDGWL-phage can bind to the RGD-containing peptide

Compound: BSA: control protein
retention on *CWDDGWLC*-Sepharose column (fibronectin; proteins other than fibronectin): not retained

Compound: DGWLGF
number of phage displaying the same amino acid motif ([11]; direct infection of wells): 2

Compound: DYWLGF
number of phage displaying the same amino acid motif ([11]; direct infection of wells): 1

Compound: FVLWLV
number of phage displaying the same amino acid motif ([11]; direct infection of wells): 1

Compound: Fibronectin
retention on control unrelated peptide column [12]: not retained

Compound: GNRLR
number of phage displaying the same amino acid motif ([11]; direct infection of wells): 1

Compound: GRGESP
elution of fibronectin from *CWDDGWLC*-Sepharose (fibronectin; eluting peptide 1 mM, SDS-PAGE): not with the GRGESP peptide

Compound: LVWLLVQFY
number of phage displaying the same amino acid motif ([11]; EDTA elution): 2

Compound: PDDLWWL
number of phage displaying the same amino acid motif ([11]; direct infection of wells): 3

Compound: QRIVLGFT
number of phage displaying the same amino acid motif ([11]; direct infection of wells): 1

Compound: SWDDGWL
number of phage displaying the same amino acid motif ([11]; direct infection of wells): 6

Compound: TLRFQRS
number of phage displaying the same amino acid motif ([11]; EDTA elution): 1

Compound: WDDGLM
number of phage displaying the same amino acid motif ([11]; RGD elution): 7

Compound: WDDGWL (disulfide (positions not given here))
divalent cation requirement of phage binding [13]: did not require divalent cations | phage binding [14]: minimal | phage binding [15]: minimal | phage binding [16]: minimal | number of phage displaying the same amino acid motif ([11]; EDTA elution): 21 | number of phage displaying the same amino acid motif ([11]; RGD elution): 131 | number of phage displaying the same amino acid motif ([11]; direct infection of wells): 45

Compound: WDDGWM
number of phage displaying the same amino acid motif ([11]; RGD elution): 4

Compound: WDDLWWL
number of phage displaying the same amino acid motif ([11]; RGD elution): 10

Compound: mutant alIb[33 integrin: integrin with aspartic acid residues of DDLW mutated to alanines (ref 3)
binding to OPG2 antibody (RGD-mimic OPG2 antibody): lost | binding to fibrinogen (fibrinogen): did not appreciably affect the binding
